Laboratory results taken from patent publication US6713504B2, “Antifungal molecule 2-(3,4-dimethyl-2,5-dihydro-1H-pyrrol-2-yl)-1-methylethyl pentanoate” (Council of Scientific & Industrial Research, priority 2002, dated 2004).
≈ marks a conversion by molar mass, not a printed value.

Experiments:
Format in all cases: cell-based
[1] = system: RAW cells; test: In vitro cell cytotoxicity by MTT assay
Experimental: (§1) The stock culture of RAW cells was obtained from National Facility for Cell and Tissue Culture, Pune.
(§2) The stock solution of the compound was prepared by dissolving 2.5 mg of the purified compound in minimum amount of DMSO and then diluted with double distilled water to make the final volume 1.0-ml.
(§3) The cells were harvested at the log phase of growth confluency from the flask. The homogeneous suspension of cells was prepared in 2.0 ml of culture medium. The number of cells in the suspension was counted using a hemocytometer and the cell suspension was diluted in such a way so as to obtain 5×10^7 viable cells per ml. The viability of the cells was checked with trypan blue dye exclusion test. The cytotoxicity assay was performed in 96 wells flat bottom tissue culture plates (Nunc Nunclon). The cells (5×10^6) in 100.0 μl volume were seeded into each well. The plate was incubated at 37° C. in atmosphere of 5% (v/v) CO2 for 8 h. The wells were examined microscopically for the formation of monolayer of the cells. […] In +ve control wells, a known cytotoxic protein obtained from A. fumigatus, was used. The ZnSO4 (8.0 mg/L) was used as another +ve toxic material in another set of wells. In negative control wells equivalent amount of the solvent was used. The duplicate wells were used for each concentration of the test compound. The plates were incubated at 37° C. in 5% (v/v) CO2 incubator overnight (12 h). The medium along with floating dead cells from the wells was removed by inverting the plate. Thus, only the live cells sticking to the surface of plate were left in the wells. […] After adding the dye to the wells, the plate was kept at 37° C. in 5% CO2 for 1 h. The tissue culture plate was removed from the incubator and all the dye was aspirated. Only live cells took up the dye. The cells were lysed by adding 100.0 μl of isopropanol-HCl to the wells. After lysis of the cells, the plates were read at 540 nm using plate reader (Spectra Max 190, Molecular Device).
(§4) The toxicity of the compound was expressed as percentage with respect to that obtained in −ve control sample. The percent cytotoxicity was calculated using the formula given below. [formula]
(§5) The percent cytotoxicity was plotted against log concentration of the compound to find out concentration which was cytotoxic to 50% of the cells (CT50).

[2] = In vitro cell cytotoxicity by MTT assay; conditions: mouse; 1250.0 μg/ml; RAW cells; MTT; read-out: percent cytotoxicity
Experimental: as §1, §2, §3, §4, §5

[3] = system: Aspergillus species; test: Spore germination inhibition assay; conditions: 10 hrs incubation
Experimental: (§6) Pathogenic strains of fungi were obtained from the Mycology Department of Vallabhbhai Patel Chest Institute, Delhi. All the strains were grown on Sabouraud dextrose agar at 37° C. The conidia form these cultures were harvested and suspended in Sabouraud maltose broth. The number of conidia was counted using haemocytometer and their number in the suspension was adjusted to as per need of the experiment.
The modified spore germination inhibition assay was performed as described earlier (Sureder P. and Janaiah C., 1987, Ind. J. Expt. Biol., 25, 233-234). The fungal species were grown on Sabouraud dextrose agar plates at 37° C. for 96 h. […] The conidia were counted and their number in the suspension was adjusted to 1×10^4 per ml. The standard drug Amphotericin B and test samples were initially dissolved in minimal quantity of dimethylsulfoxide (DMSO) and then diluted with Sabouraud dextrose medium. […] The number of germinated and non-germinated spores was counted. The percent spore germination inhibition (PSGI) was calculated using following formula [formula]
Antifungal Activity of Pure Compound by Spore Germination Inhibition Assay The spore germination inhibition assay was performed to evaluate the activity of the compound. […] The number of germinated and non-germinated spores was counted and the percent spore germination inhibition (PSGI) was calculated. […]

[4] = system: A. flavus; test: Disc diffusion assay; conditions: concentration developing zone of inhibition of 6.0-mm diameter
Experimental: as §6
(§7) The disc diffusion test was performed as per described in the section of details of invention. Amphotericin B 1.25 μg/disc was used in assay as positive control standard drug. Additional discs impregnated with equivalent amount of solvent were also used in the assay as negative controls (FIG. 5).

[5] = system: A. niger; test: Disc diffusion assay
Experimental: as §6, §7

## CCCCC(=O)OC(C)CC1NCC(C)=C1C (centres unmarked) [PC-1, 2-(3,4-dimethyl-2,5-dihydro-1H-pyrrol-2-yl)-1-methylethyl pentanoate]
[1]; RAW cells, MTT
  concentration completely non-toxic to the cells: up to 312.5 μg/ml
[1]; RAW cells, MTT, 12 h
  CT50 (dose cytotoxic to 50% of the cells): 889.2 µg/mL
[1]; comparison with Amphotericin B
  less cytotoxic than the standard antifungal drug Amphotericin B: 57.8 times
[2]
  cytotoxicity at 12 h, 1250 μg/ml: 76%
[3]
  MIC by percent spore germination inhibition: 87.5 µg/mL (≈ 366 µM)
[4]
  MIC by disc diffusion assay: 5 μg/disc
[5]; Aspergillus niger, 20.0 μg/disc, 48 hrs, read-out: Diameter of zone of inhibition
  zone of inhibition at 20 µg/disc: 9.4 mm
[5]; concentration developing zone of inhibition of 6.0-mm diameter
  MIC by disc diffusion assay: 5 μg/disc
